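Test compounds were applied to cells in 96-well plates for 48 hours at 5 doses. GI50 marks 50% less growth.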 Active and inactive are the calls of the source. Rule as the data show it: active = GI50 up to about 1.1 µM and inactive = higher.
How the values were obtained:
Experiment in all cases: NCI anticancer screen, dose series, 48 h
[1] = system: DU-145
[2] = system: DLD-1
[3] = system: M19-MEL
[4] = system: XF498
[5] = system: DMS-273

SMILES	GI50 [1]	GI50 [2]	GI50 [3]	GI50 [4]	GI50 [5]
CC1(O)C2(c3ccccc3)CCC[N+]1(C)CC2 (stereo not given)	> 100 µM (inactive)	–	–	–	–
O=S(=O)(O)c1cc(S(=O)(=O)O)c2cc(/N=N/c3ccc(/N=N/c4ccc(/C=C/c5ccc(/N=[N+](/[O-])c6ccc(/C=C/c7ccc(/N=N/c8ccc(/N=N/c9ccc%10cc(S(=O)(=O)O)cc(S(=O)(=O)O)c%10c9)cc8)cc7S(=O)(=O)O)c(S(=O)(=O)O)c6)cc5S(=O)(=O)O)c(S(=O)(=O)O)c4)cc3)ccc2c1	–	> 81.3 µM (inactive)	> 25 µM (inactive)	45.2 µM (inactive)	> 55.6 µM (inactive)

Reference: ChEMBL document CHEMBL1201862, “PubChem BioAssay data set” (2004)
